From article PMC12860872, “Preclinical evaluation of DOTAGA.Glu.(FAPI)2 and DO3A.Glu.(FAPI)2 as theranostics with human dosimetry extrapolation to lutetium-177 and terbium-161 analogs” (European Journal of Nuclear Medicine and Molecular Imaging, 2025)
“And” between values parts separate entries of the source, which are not always exact repeats. Equal entries are not always repeated.

Key:
[1] = cited from earlier work
[2] = Extrapolated human dosimetry (OLINDA/EXM, ICRP-89 phantoms); parameters: TIAC average pancreas: unit not given beside the values; TIAC average stomach / TIAC average Small Intestine / TIAC average Left Column / TIAC average Rectum / TIAC average adrenal / TIAC average bone / TIAC average Red marrow / TIAC average salivary glands / TIAC average ROB / TIAC average Total Frac IA / TIAC average heart content / TIAC average heart wall / TIAC average liver / TIAC average spleen / TIAC average lung / TIAC average kidney: unit not given here
Description: To address inter-animal variability, the TIACs for each source organ were calculated from both the mean nTACs and the nTACs obtainend from fitting the mean ± 1 standard deviation (SD) of the normalized time-activity data, providing upper and lower bounds.
The mice-to-human TIAC extrapolation accounted for species-specific differences in relative source organ masses, m(organ), as compared to the total body weight (WB), for the mice (m) and human (h) models respectively.
(§1) The human organ masses, m(organ)h, were obtained from ICRP-89 adult male and female reference phantoms, while the murine organ masses, m(organ)m, were derived from the standard MOBY mouse model. The extrapolated human TIACs, TIACh were entered in the OLINDA/EXM software to compute the absorbed doses to target organs and the effective dose for adult male, female, and gender-averaged human models. […]
The TIACs, for [177Lu]Lu-DOTAGA.Glu.(FAPI)2 and [177Lu]Lu-DO3A.Glu.(FAPI)2, were determined by time integration of the nTACs. To account for the inter-animal variability, the TIACs for each source organ were calculated using both the mean nTACs and the nTACs obtainend from fitting the mean ±1 standard deviation (SD) of the normalized time-activity data. This approach provided the upper and the lower bounds for the estimated TIACs.
The mice-to-human TIAC extrapolation was obtained considering the different (species-specific) relative source organ masses, m(organ), as compared to the total body weight (WB), for the mice (m) and human (h) models respectively.
as §1, with “the” for “ICRP-89”, “models phantoms defined in ICRP-89,” for “phantoms,”, “TIACs values, TIACh, for each source organ” for “TIACs, TIACh”, “input into the kinetic module of” for “entered in”, “software (version 2.1, HERMES Medical Solutions AB, Stockholm, Sweden)” for “software”

[3] = test system: PC3-mice; test: Organ clearance biological half-lives from biodistribution data; format: in vivo, mouse
Description: Blood samples were collected from the facial vein at 1, 3, 5, 7, 10, 15, 20, 30, 45, 60, 240, and 1440 min p.i., weighed, and measured for radioactivity using a γ-counter. Results were expressed as % I.A./g of blood and plotted over time. The initial and terminal half-lives were determined using Two-Phase Decay Model. The biological half-lives of selected organs were calculated from the biodistribution data using One-Phase Decay Model (GraphPad Prism 8).

[4] = ICRP 89 Adult Female, extrapolated
[5] = ICRP 89 Adult Male, extrapolated
[6] = human extrapolation, male-female range
[7] = PC3-mice, One-Phase Decay Model

N#C[C@@H]1CC(F)(F)CN1C(=O)CNC(=O)c1ccnc2ccc(OCCCCNC(=O)CC[C@H](NC(=O)CCC(C(=O)O)N3CCN(CC(=O)[O-])CCN(CC(=O)[O-])CCN(CC(=O)[O-])CC3)C(=O)NCCCCOc3ccc4nccc(C(=O)NCC(=O)N5CC(F)(F)C[C@H]5C#N)c4c3)cc12.[177Lu+3] (stereo partly drawn) [[^177Lu]Lu-DOTAGA.Glu.(FAPI)2]
absorbed dose left colon ([1]; human dosimetry, mean): 0.31 ± 0.12 Gy/GBq
absorbed dose right colon ([1]; human dosimetry, mean): 0.22 ± 0.09 Gy/GBq
biological half-life in bone metastases ([1]; human studies): 19.5 ± 7.3 h
biological half-life in soft tissue metastases ([1]; human studies): 22.1 ± 6.7 h
Absorbed dose (AD average) Adrenals [2, 4]: 1.46E-02 mGy/Mbq
Absorbed dose (AD average) Brain [2, 4]: 2.94E-02 mGy/Mbq
Absorbed dose (AD average) Breasts [2, 4]: 2.88E-02 mGy/Mbq
Absorbed dose (AD average) Esophagus [2, 4]: 3.06E-02 mGy/Mbq
Absorbed dose (AD average) Eyes [2, 4]: 2.94E-02 mGy/Mbq
Absorbed dose (AD average) Gallbladder Wall [2, 4]: 3.30E-02 mGy/Mbq
Absorbed dose (AD average) Heart Wall [2, 4]: 4.42E-02 mGy/Mbq
Absorbed dose (AD average) Kidneys [2, 4]: 4.97E-02 ± 0.002 mGy/Mbq and 4.97E-02 mGy/Mbq
Absorbed dose (AD average) Left colon [2, 4]: 1.05E-01 mGy/Mbq
Absorbed dose (AD average) Liver [2, 4]: 2.00E-01 ± 0.02 mGy/Mbq and 2.00E-01 mGy/Mbq
Absorbed dose (AD average) Lungs [2, 4]: 4.59E-02 ± 0.004 mGy/Mbq and 4.59E-02 mGy/Mbq
Absorbed dose (AD average) Osteogenic Cells [2, 4]: 8.92E-02 ± 0.01 mGy/Mbq and 8.92E-02 mGy/Mbq
Absorbed dose (AD average) Ovaries [2, 4]: 3.09E-02 mGy/Mbq
Absorbed dose (AD average) Pancreas [2, 4]: 3.90E-02 ± 0.002 mGy/Mbq and 3.90E-02 mGy/Mbq
Absorbed dose (AD average) Rectum [2, 4]: 1.07E-01 mGy/Mbq
Absorbed dose (AD average) Red Marrow [2, 4]: 3.24E-02 ± 0.003 mGy/Mbq and 3.24E-02 mGy/Mbq
Absorbed dose (AD average) Right colon [2, 4]: 6.88E-02 mGy/Mbq
Absorbed dose (AD average) Salivary Glands [2, 4]: 1.26E-01 ± 0.004 mGy/Mbq and 1.26E-01 mGy/Mbq
Absorbed dose (AD average) Small Intestine [2, 4]: 5.84E-02 ± 0.02 mGy/Mbq and 5.84E-02 mGy/Mbq
Absorbed dose (AD average) Spleen [2, 4]: 3.53E-02 ± 0.01 mGy/Mbq and 3.53E-02 mGy/Mbq
Absorbed dose (AD average) Stomach Wall [2, 4]: 4.24E-02 mGy/Mbq
Absorbed dose (AD average) Thymus [2, 4]: 3.04E-02 mGy/Mbq
Absorbed dose (AD average) Thyroid [2, 4]: 2.95E-02 mGy/Mbq
Absorbed dose (AD average) Total Body [2, 4]: 4.42E-02 ± 0.01 mGy/Mbq and 4.42E-02 mGy/Mbq
Absorbed dose (AD average) Urinary Bladder Wall [2, 4]: 3.05E-02 mGy/Mbq
Absorbed dose (AD average) Uterus [2, 4]: 3.10E-02 mGy/Mbq
Effective dose (average) [2, 4]: 4.71E-02
Absorbed dose (AD average) Adrenals [2, 5]: 1.17E-02 mGy/Mbq
Absorbed dose (AD average) Brain [2, 5]: 1.98E-02 mGy/Mbq
Absorbed dose (AD average) Esophagus [2, 5]: 2.11E-02 mGy/Mbq
Absorbed dose (AD average) Eyes [2, 5]: 1.97E-02 mGy/Mbq
Absorbed dose (AD average) Gallbladder Wall [2, 5]: 2.49E-02 mGy/Mbq
Absorbed dose (AD average) Heart Wall [2, 5]: 3.66E-02 mGy/Mbq
Absorbed dose (AD average) Kidneys [2, 5]: 4.08E-02 ± 0.002 mGy/Mbq and 4.08E-02 mGy/Mbq
Absorbed dose (AD average) Left colon [2, 5]: 8.56E-02 mGy/Mbq
Absorbed dose (AD average) Liver [2, 5]: 1.64E-01 ± 0.01 mGy/Mbq and 1.64E-01 mGy/Mbq
Absorbed dose (AD average) Lungs [2, 5]: 3.74E-02 ± 0.003 mGy/Mbq and 3.74E-02 mGy/Mbq
Absorbed dose (AD average) Osteogenic Cells [2, 5]: 9.26E-02 ± 0.01 mGy/Mbq and 9.26E-02 mGy/Mbq
Absorbed dose (AD average) Pancreas [2, 5]: 3.11E-02 ± 0.002 mGy/Mbq and 3.11E-02 mGy/Mbq
Absorbed dose (AD average) Prostate [2, 5]: 2.04E-02 mGy/Mbq
Absorbed dose (AD average) Rectum [2, 5]: 8.54E-02 mGy/Mbq
Absorbed dose (AD average) Red Marrow [2, 5]: 2.38E-02 ± 0.002 mGy/Mbq and 2.38E-02 mGy/Mbq
Absorbed dose (AD average) Right colon [2, 5]: 5.39E-02 mGy/Mbq
Absorbed dose (AD average) Salivary Glands [2, 5]: 1.03E-01 ± 0.004 mGy/Mbq and 1.03E-01 mGy/Mbq
Absorbed dose (AD average) Small Intestine [2, 5]: 4.17E-02 ± 0.01 mGy/Mbq and 4.17E-02 mGy/Mbq
Absorbed dose (AD average) Spleen [2, 5]: 2.87E-02 ± 0.01 mGy/Mbq and 2.87E-02 mGy/Mbq
Absorbed dose (AD average) Stomach Wall [2, 5]: 3.05E-02 mGy/Mbq
Absorbed dose (AD average) Testes [2, 5]: 1.95E-02 mGy/Mbq
Absorbed dose (AD average) Thymus [2, 5]: 2.03E-02 mGy/Mbq
Absorbed dose (AD average) Thyroid [2, 5]: 2.02E-02 mGy/Mbq
Absorbed dose (AD average) Total Body [2, 5]: 3.25E-02 ± 0.003 mGy/Mbq and 3.25E-02 mGy/Mbq
Absorbed dose (AD average) Urinary Bladder Wall [2, 5]: 2.03E-02 mGy/Mbq
Effective dose (average) ([2]; ICRP 89 Adult Male, extrapolated, in mSv/MBq (unit assumed)): 3.40E-02
absorbed dose kidneys [2, 6]: 0.04–0.05 Gy/GBq
absorbed dose liver [2, 6]: 0.16–0.20 Gy/GBq
absorbed dose salivary glands [2, 6]: 0.10–0.13 Gy/GBq
total body and effective doses [2, 6]: 0.033–0.044 Gy/GBq
TIAC average Left Column ([2]; human female, extrapolated): 0.1373
TIAC average ROB ([2]; human female, extrapolated): 18.6076
TIAC average Rectum ([2]; human female, extrapolated): 0.1420
TIAC average Red marrow ([2]; human female, extrapolated): 0.2030
TIAC average Small Intestine ([2]; human female, extrapolated): 0.1803
TIAC average Total Frac IA ([2]; human female, extrapolated): 25.6850
TIAC average adrenal ([2]; human female, extrapolated): 0.0011
TIAC average bone ([2]; human female, extrapolated): 4.9073
TIAC average heart content ([2]; human female, extrapolated): 0.0834
TIAC average heart wall ([2]; human female, extrapolated): 0.0889
TIAC average kidney ([2]; human female, extrapolated): 0.1445
TIAC average liver ([2]; human female, extrapolated): 3.1244
TIAC average lung ([2]; human female, extrapolated): 0.4651
TIAC average pancreas ([2]; human female, extrapolated): 0.0460
TIAC average salivary glands ([2]; human female, extrapolated): 0.1012
TIAC average spleen ([2]; human female, extrapolated): 0.0480
TIAC average stomach ([2]; human female, extrapolated): 0.0626
TIAC average Left Column ([2]; human male, extrapolated): 0.1129
TIAC average ROB ([2]; human male, extrapolated): 15.0586
TIAC average Rectum ([2]; human male, extrapolated): 0.1129
TIAC average Red marrow ([2]; human male, extrapolated): 0.2169
TIAC average Small Intestine ([2]; human male, extrapolated): 0.1684
TIAC average Total Frac IA ([2]; human male, extrapolated): 25.6850
TIAC average adrenal ([2]; human male, extrapolated): 0.0009
TIAC average bone ([2]; human male, extrapolated): 5.5459
TIAC average heart content ([2]; human male, extrapolated): 0.0945
TIAC average heart wall ([2]; human male, extrapolated): 0.0965
TIAC average kidney ([2]; human male, extrapolated): 0.1339
TIAC average liver ([2]; human male, extrapolated): 3.3017
TIAC average lung ([2]; human male, extrapolated): 0.4829
TIAC average pancreas ([2]; human male, extrapolated): 0.0441
TIAC average salivary glands ([2]; human male, extrapolated): 0.1010
TIAC average spleen ([2]; human male, extrapolated): 0.0456
TIAC average stomach ([2]; human male, extrapolated): 0.0557
Bone clearance half-life, 95% confidence interval [3, 7]: 27.60 to 33.77 h
Kidney clearance half-life, 95% confidence interval [3, 7]: 23.41 to 38.84 h
Liver clearance half-life, 95% confidence interval [3, 7]: 70.61 to 362.5 h
Pancreas clearance half-life, 95% confidence interval [3, 7]: 16.87 to 39.95 h
Salivary glands clearance half-life, 95% confidence interval [3, 7]: 12.06 to 34.90 h
Tumor clearance half-life, 95% confidence interval [3, 7]: 19.85 to 32.80 h
tumor biological half-life ([3]; PC3-tumors): 25.5 h
